The record followed here is patent US5607937A, “Piperazides of substituted phenylalanine derivatives as thrombin inhibitors” (priority 1993, dated 1997).

For experiment [1], the target named is factor Xa (Bos taurus, UniProt P00743). Put plainly: inhibition of factor Xa, dissociation constant Ki. The class given is biochemical. The conditions noted are these: Table 1. On the procedure:
(§1) The biological activity of the compounds of the present invention was determined in vitro as well as in vivo.

Experiment [2] addresses T1, thrombin (Bos taurus, UniProt P00735). The experiment in a line: biochemical.
Experiment [3] deals with tPA (Homo sapiens, UniProt P00750). Put plainly: inhibition of tPA, dissociation constant Ki.
Chain of tPA (P00750 36-562): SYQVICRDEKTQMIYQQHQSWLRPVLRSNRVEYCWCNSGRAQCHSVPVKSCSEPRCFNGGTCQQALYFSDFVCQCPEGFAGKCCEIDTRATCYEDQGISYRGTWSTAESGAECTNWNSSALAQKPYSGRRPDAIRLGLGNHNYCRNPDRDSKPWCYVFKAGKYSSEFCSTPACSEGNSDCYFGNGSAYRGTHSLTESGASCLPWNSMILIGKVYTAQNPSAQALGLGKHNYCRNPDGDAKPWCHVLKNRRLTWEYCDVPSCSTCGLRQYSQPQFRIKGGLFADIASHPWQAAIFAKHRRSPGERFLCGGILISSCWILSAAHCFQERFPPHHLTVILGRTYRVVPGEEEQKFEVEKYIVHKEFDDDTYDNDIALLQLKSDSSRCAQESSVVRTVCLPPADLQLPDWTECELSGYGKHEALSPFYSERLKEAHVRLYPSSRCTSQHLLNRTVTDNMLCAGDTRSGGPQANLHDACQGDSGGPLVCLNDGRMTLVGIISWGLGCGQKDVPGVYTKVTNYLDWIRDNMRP
Experiment [4] addresses plasmin (Homo sapiens, UniProt P00747). The experiment in a line: inhibition of plasmin, dissociation constant Ki.
The target in experiment [5] is T2, factor XIIa (Homo sapiens, UniProt P00748).
T2 sequence (P00748 373-615 limits assumed): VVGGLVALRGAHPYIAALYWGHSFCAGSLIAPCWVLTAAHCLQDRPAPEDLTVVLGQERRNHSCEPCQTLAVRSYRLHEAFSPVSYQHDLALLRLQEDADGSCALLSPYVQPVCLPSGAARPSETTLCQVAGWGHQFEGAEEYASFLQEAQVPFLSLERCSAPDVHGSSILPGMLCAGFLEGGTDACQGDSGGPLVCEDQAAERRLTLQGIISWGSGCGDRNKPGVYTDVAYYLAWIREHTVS
Put plainly: inhibition of factor XIIa, dissociation constant Ki.

In experiment [6] the target is plasma kallikrein (Homo sapiens, UniProt P03952). The experiment in a line: inhibition of plasma kallikrein, dissociation constant Ki.
Chain of plasma kallikrein (P03952 391-638 limits assumed, species assumed): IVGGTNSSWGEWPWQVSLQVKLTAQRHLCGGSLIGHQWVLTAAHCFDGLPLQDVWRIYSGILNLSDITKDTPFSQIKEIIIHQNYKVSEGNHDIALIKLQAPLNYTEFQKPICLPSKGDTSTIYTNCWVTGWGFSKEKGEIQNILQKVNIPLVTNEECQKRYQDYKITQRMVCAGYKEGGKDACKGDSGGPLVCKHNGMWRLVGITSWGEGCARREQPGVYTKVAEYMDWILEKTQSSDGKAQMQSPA
Chain of plasma kallikrein (P03952 20-390 partner limits assumed, species assumed): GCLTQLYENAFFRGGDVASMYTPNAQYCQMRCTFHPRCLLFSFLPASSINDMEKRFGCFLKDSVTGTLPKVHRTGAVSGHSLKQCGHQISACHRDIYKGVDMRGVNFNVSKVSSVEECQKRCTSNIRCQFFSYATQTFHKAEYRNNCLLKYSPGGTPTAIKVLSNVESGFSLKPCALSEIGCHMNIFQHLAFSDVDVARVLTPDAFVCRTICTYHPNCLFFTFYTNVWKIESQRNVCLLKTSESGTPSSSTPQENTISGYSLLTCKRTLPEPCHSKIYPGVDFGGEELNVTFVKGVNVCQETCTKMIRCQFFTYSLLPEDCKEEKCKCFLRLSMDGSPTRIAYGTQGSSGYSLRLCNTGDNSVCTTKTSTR
For experiment [7], the target named is glandular kallikrein (Sus scrofa, UniProt P00752). Put plainly: inhibition of glandular kallikrein, dissociation constant Ki.
Chain of glandular kallikrein (P00752 8-246): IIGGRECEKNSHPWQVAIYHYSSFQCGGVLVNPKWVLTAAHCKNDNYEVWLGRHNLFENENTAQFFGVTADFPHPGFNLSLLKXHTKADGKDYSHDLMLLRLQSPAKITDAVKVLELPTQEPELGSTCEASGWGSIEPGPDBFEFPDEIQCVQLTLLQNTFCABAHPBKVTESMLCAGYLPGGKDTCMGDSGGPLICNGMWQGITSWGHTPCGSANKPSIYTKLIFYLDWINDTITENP
Experiment [8] has as its target T3, trypsin (Bos taurus, UniProt P00760).
T3 sequence (P00760 24-246): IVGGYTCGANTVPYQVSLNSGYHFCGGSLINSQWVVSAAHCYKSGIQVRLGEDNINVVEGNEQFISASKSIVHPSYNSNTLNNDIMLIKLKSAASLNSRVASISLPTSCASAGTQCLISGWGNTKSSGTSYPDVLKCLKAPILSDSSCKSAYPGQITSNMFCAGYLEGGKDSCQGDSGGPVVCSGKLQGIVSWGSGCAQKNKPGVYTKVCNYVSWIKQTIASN
The experiment in a line: inhibition of trypsin, dissociation constant Ki. The class given is biochemical. Also noted: thrombin and the related enzymes trypsin, plasmin, factor Xa, factor XIIa. Particulars: Table 1; read-out: Ki, Trypsin. On the procedure: as §1

For experiment [9], the target named is T1, thrombin. Particulars: read-out: Ki, Thrombin; Table 1.

Read-outs that look alike come from different tables or passages of the source.

Chain of plasmin (P00747 581-810 limits assumed): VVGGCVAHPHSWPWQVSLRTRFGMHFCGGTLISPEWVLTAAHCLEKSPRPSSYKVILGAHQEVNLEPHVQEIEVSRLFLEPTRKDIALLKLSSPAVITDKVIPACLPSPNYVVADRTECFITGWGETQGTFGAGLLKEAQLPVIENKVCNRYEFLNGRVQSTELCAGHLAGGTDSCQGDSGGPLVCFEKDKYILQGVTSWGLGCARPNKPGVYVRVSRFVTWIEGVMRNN
Chain of plasmin (P00747 97-580 partner limits assumed): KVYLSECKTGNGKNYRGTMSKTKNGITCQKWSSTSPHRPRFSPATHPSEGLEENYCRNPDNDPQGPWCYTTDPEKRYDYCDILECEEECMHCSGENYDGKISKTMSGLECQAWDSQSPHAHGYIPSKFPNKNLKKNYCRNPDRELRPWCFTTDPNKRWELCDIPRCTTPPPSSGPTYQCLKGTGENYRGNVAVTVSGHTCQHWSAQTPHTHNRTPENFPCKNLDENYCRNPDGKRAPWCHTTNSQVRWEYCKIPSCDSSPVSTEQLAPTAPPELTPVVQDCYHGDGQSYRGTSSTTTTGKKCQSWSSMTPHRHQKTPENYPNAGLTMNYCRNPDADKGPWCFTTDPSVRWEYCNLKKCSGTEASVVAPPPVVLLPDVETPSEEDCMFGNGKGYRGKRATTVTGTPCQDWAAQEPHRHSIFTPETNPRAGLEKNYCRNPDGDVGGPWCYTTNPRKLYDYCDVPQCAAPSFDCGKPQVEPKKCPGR
Chain of factor Xa (P00743 234-492 limits assumed): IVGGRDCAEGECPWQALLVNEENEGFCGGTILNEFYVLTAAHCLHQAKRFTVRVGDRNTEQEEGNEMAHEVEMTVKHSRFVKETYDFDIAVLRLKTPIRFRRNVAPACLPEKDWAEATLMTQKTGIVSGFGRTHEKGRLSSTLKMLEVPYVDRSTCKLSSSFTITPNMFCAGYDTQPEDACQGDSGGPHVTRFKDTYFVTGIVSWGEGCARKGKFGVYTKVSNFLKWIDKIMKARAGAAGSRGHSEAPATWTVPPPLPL
Chain of factor Xa (P00743 41-180 partner limits assumed): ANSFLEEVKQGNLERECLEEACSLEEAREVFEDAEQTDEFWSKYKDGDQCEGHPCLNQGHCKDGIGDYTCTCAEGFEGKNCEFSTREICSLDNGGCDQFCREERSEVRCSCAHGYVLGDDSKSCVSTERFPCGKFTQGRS

In the case of `N=C(N)c1cccc(CC(NS(=O)(=O)c2ccc3ccccc3c2)C(=O)N2CCN(c3ccccn3)CC2)c1` (centres unmarked) [AMD 2-Naph 2-Pyl], the Ki in experiment [1] is 12 µM; in experiment [2], 0.52 µM; in experiment [3] it was over 1000 µM; in experiment [4], 3.3 µM; in experiment [5] it was 84 µM; in [6], 19 µM. In addition, the values for the inhibition constant Ki in experiment [7] and in [8] were over 1000 µM and 0.035 µM, respectively.

For the compound `N=C(N)c1cccc(CC(NS(=O)(=O)c2ccc3ccccc3c2)C(=O)N2CCN(c3ncccn3)CC2)c1` (centres unmarked) [AMD 2-Naph 2-Pym], the Ki amounted to 14 µM in experiment [1]; 1.8 µM in [2]; 320 µM in experiment [3]; 3.3 µM in experiment [4]; 100 µM in experiment [5]; 19 µM in experiment [6]. Further, the results for the Ki in [7] and in experiment [8] were over 1000 µM and 0.061 µM, respectively.

Turning to `CCCCCC(=O)N1CCN(C(=O)C(Cc2cccc(C(=N)N)c2)NS(=O)(=O)c2ccc3ccccc3c2)CC1` (centres unmarked) [AMD 2-Naph CO(CH2)4 CH3], the Ki in [1] was 19 µM; in experiment [9], 6.5 µM; in [3] it was over 1000 µM; in [4] (read-out: Ki, Plasmin, Table 1), 2.6 µM; in experiment [5], 270 µM; in [6] it was 23 µM. Moreover, in experiment [7], the Ki was over 1000 µM.

For the compound `N=C(N)c1cccc(CC(NS(=O)(=O)c2ccc3ccccc3c2)C(=O)N2CCN(C(=O)C3CCC3)CC2)c1` (centres unmarked) [AMD 2-Naph CO-cBu], the Ki in [2] was 2.5 µM; in experiment [3], over 1000 µM; in experiment [4], 7.6 µM; in experiment [5], over 1000 µM; in experiment [6], 56 µM; in [7], over 1000 µM. In addition, the inhibitory constant (Ki) in experiment [8] amounted to 0.026 µM.

As to `N=C(N)c1cccc(CC(NS(=O)(=O)c2ccc3ccccc3c2)C(=O)N2CCN(C(=O)C3CCCCC3)CC2)c1` (centres unmarked) [AMD 2-Naph CO-cHex], the Ki in experiment [3] was over 1000 µM; in experiment [4] (read-out: Ki, Plasmin, Table 1) it was 10.2 µM; in [5], 350 µM; in experiment [6] it was 79 µM; in experiment [7], over 1000 µM.

As to `N=C(N)c1cccc(CC(NS(=O)(=O)c2ccc3ccccc3c2)C(=O)N2CCN(C(=O)C3CC3)CC2)c1` (centres unmarked) [AMD 2-Naph CO-cPr], the Ki stood at 45 µM in experiment [1]; 0.14 µM in [2]; 170 µM in [3]; 5.1 µM in [4]; 540 µM in experiment [5]; 22 µM in [6]. Further, the Ki in experiment [7] was over 1000 µM; in [8], 0.044 µM.

`COCC(=O)N1CCN(C(=O)C(Cc2cccc(C(=N)N)c2)NS(=O)(=O)c2ccc3ccccc3c2)CC1` (centres unmarked) [AMD 2-Naph COCH2 OMe]: the inhibition constant (Ki) in experiment [1] was 16 µM; in experiment [2], 1.3 µM; in [3] it was over 1000 µM; in experiment [4], 6.2 µM; in [5], 74 µM; in [6] it was 16 µM. The values for the inhibitory constant (Ki) in experiment [7] and in experiment [8] were over 1000 µM and 0.066 µM, respectively.

In the case of `CC(C)C(=O)N1CCN(C(=O)C(Cc2cccc(C(=N)N)c2)NS(=O)(=O)c2ccc3ccccc3c2)CC1` (centres unmarked) [AMD 2-Naph COCH(Me)2], the Ki in [1] is 84 µM; in experiment [2], 0.26 µM; in experiment [3], 440 µM; in experiment [4], 9.3 µM; in experiment [5], over 1000 µM; in [6], 50 µM. For the same compound, the Ki in [7] is over 1000 µM; in experiment [8] it was 0.063 µM.

As for `COc1cc(C)c(S(=O)(=O)N2CCN(C(=O)C(Cc3cccc(C(=N)N)c3)NS(=O)(=O)c3ccc4ccccc4c3)CC2)c(C)c1C` (centres unmarked) [AMD 2-Naph SO2 -Mtr], the inhibition constant Ki in experiment [1] was 25 µM; in experiment [2], 0.05 µM; in experiment [3], over 1000 µM; in experiment [4] it was 37 µM; in experiment [5], 7.6 µM; in experiment [6], 6.9 µM. Moreover, the Ki in experiment [7] is over 1000 µM; in [8], 1.5 µM.

For `Cc1cc(C)c(S(=O)(=O)N2CCN(C(=O)C(Cc3cccc(C(=N)N)c3)NS(=O)(=O)c3ccc4ccccc4c3)CC2)c(C)c1` (centres unmarked) [AMD 2-Naph SO2 -TMeP], the Ki in experiment [1] was 13 µM; in [2], 0.075 µM; in experiment [3], over 1000 µM; in experiment [4], 31 µM; in experiment [5] it was 690 µM; in experiment [6], 1 µM. For the same compound, the Ki in experiment [7] is over 1000 µM; in experiment [8], 0.59 µM.

In the case of `CS(=O)(=O)N1CCN(C(=O)C(Cc2cccc(C(=N)N)c2)NS(=O)(=O)c2ccc3ccccc3c2)CC1` (centres unmarked) [AMD 2-Naph SO2 Me], the inhibition constant Ki in experiment [1] was 22 µM; in experiment [3] it was over 1000 µM; in [4] (read-out: Ki, Plasmin, Table 1) it was 12 µM; in [5] it was 86 µM; in experiment [6], 77 µM; in experiment [7], over 1000 µM.

Consider `N=C(N)c1cccc(CC(NS(=O)(=O)c2ccc3ccccc3c2)C(=O)N2CCN(C(=O)Cc3cccs3)CC2)c1` (centres unmarked) [AMD 2-Naph drawing 11], for which the inhibition constant Ki in [1] turned out to be 16 µM; in experiment [2], 2.5 µM; in experiment [3], 170 µM; in experiment [4], 2.7 µM; in experiment [5], 72 µM; in experiment [6], 19 µM. In addition, the Ki in experiment [7] is over 1000 µM; in experiment [8], 0.081 µM.

In the case of `N=C(N)c1cccc(CC(NS(=O)(=O)c2ccc3c(c2)C(=O)c2ccccc2C3=O)C(=O)N2CCN(C=O)CC2)c1` (centres unmarked) [AMD AC For], the inhibition constant Ki came to 1.7 µM in [1]; 0.031 µM in experiment [2]; 84 µM in experiment [3]; 13 µM in experiment [4]; 7.2 µM in [5]; 11 µM in [6]. Besides, the inhibition constant Ki is over 1000 µM in experiment [7] and 0.033 µM in experiment [8].

Take `CC(=O)N1CCN(C(=O)C(Cc2cccc(C(=N)N)c2)NS(=O)(=O)c2c(C)c(C)c3c(c2C)CCC(C)(C)O3)CC1` (centres unmarked) [AMD Pmc Ac]: the Ki in experiment [1] was 150 µM; in experiment [2], 0.074 µM; in [3] it was 670 µM; in [4], 11.5 µM; in experiment [5], 420 µM; in [6], 44 µM. Also, the inhibitory constant (Ki) amounted to 760 µM in experiment [7] and 0.6 µM in [8].

For the compound `Cc1c(C)c(S(=O)(=O)NC(Cc2cccc(C(=N)N)c2)C(=O)N2CCN(C(=O)N(C)C)CC2)c(C)c2c1OC(C)(C)CC2` (centres unmarked) [AMD Pmc CO-N(Me)2], the inhibition constant Ki in [1] is 26 µM; in [2] it was 0.033 µM; in experiment [3], over 1000 µM; in experiment [4], 13 µM; in experiment [5], over 1000 µM; in experiment [6], 93 µM. Also, the Ki was over 1000 µM in experiment [7] and 0.58 µM in experiment [8].

On to `Cc1c(C)c(S(=O)(=O)NC(Cc2cccc(C(=N)N)c2)C(=O)N2CCN(CCO)CC2)c(C)c2c1OC(C)(C)CC2` (centres unmarked) [AMD Pmc EtOH], for which the inhibitory constant (Ki) in experiment [1] was 91 µM; in experiment [2] it was 0.059 µM; in experiment [3], over 1000 µM; in [4], 48 µM; in [5], over 1000 µM; in experiment [6] it was 180 µM. Further, the values for the Ki in experiment [7] and in experiment [8] were over 1000 µM and 3.3 µM, respectively.

For the compound `Cc1c(C)c(S(=O)(=O)NC(Cc2cccc(C(=N)N)c2)C(=O)N2CCN(S(C)(=O)=O)CC2)c(C)c2c1OC(C)(C)CC2` (centres unmarked) [AMD Pmc SO2 Me], the Ki was 75 µM in experiment [1]; 0.0074 µM in [9]; over 1000 µM in [3]; 140 µM in experiment [5]; 140 µM in experiment [6]; over 1000 µM in [7].

Take `CC(=O)N1CCN(C(=O)C(Cc2cccc(C(=N)N)c2)NS(=O)(=O)c2c(C(C)C)cc(C(C)C)cc2C(C)C)CC1` (centres unmarked) [AMD TIPP Ac]: the Ki was 4 µM in experiment [1]; 0.098 µM in [2]; 17 µM in [3]; 3 µM in experiment [4] (read-out: Ki, Plasmin, Table 1); 47 µM in experiment [5]; 7.3 µM in experiment [6]. The Ki was found to be 200 µM in [7] and 0.22 µM in [8].

On to `N=C(N)c1cccc(C[C@H](NS(=O)(=O)c2ccc3ccccc3c2)C(=O)N2CCN(C=O)CC2)c1` [AMD(L) 2-Naph For], for which the inhibitory constant (Ki) in experiment [2] was 0.011 µM; in experiment [3] it was 120 µM; in [5] it was 42 µM; in [6] it was 3.6 µM; in experiment [7] it was over 1000 µM; in experiment [8], 0.073 µM.

As to `NCc1cccc(CC(NS(=O)(=O)c2ccc3ccccc3c2)C(=O)N2CCN(c3ccccn3)CC2)c1` (centres unmarked) [Ame 2-Naph 2-Pyl], the Ki was 130 µM in experiment [1]; 24 µM in [2]; over 1000 µM in experiment [3]; 26 µM in [4]; over 1000 µM in experiment [5]; 94 µM in experiment [6]. The Ki in experiment [7] is over 1000 µM; in [8], 0.53 µM.

As usually defined, the Ki is a measure of affinity in units of concentration, obtained from inhibition or displacement.
